Source: EP4700040A1, “PEPTIDE AND LUMINESCENT COMPLEX CONTAINING SAME” (Shenzhen Loggene Life Science & Technology Co., Ltd., priority 2023, dated 2024)

Tests used:
Assay type in all cases: biochemical, human
PCT [1] = assay: Luciferase dual-antibody complementary activation assay for PCT detection, clone supernatants, retest with CTZ-h (Example 1); details: for Signal-to-noise ratio: RLU antigen+/RLU antigen-, MBP-PCT 3.3 ng/ml, CTZ-h; for PCT+: luminescence signal value with MBP-PCT 3.3 ng/ml, large subunit-rSCFV5 50 nM, supernatant; for PCT+ / PCT-: retest CTZ-h 25 µM, read after 60 s; for PCT-: luminescence signal value, background control PBSAD without PCT
Protocol: In order to improve the signal-to-noise ratio and complementary activity of the luciferase dual-antibody complementary activation assay, a series of complementary luciferase small subunits were prepared in this example. Large subunit-rSCFV5 fusion protein (SEQ ID NO: 87) was kept unchanged, and the small subunit sequence of the rSCFV18-small subunit P114 fusion protein (SEQ ID NO: 88) was modified by semi-randomization to prepare rSCFV18-small subunit mutant fusion proteins. Based on the sequence of small subunit P114, and with reference to the 3D structure of complementary luciferase, computer-aided sequence design was employed to generate a library with a theoretical diversity of 2.49*10^6. Primers were designed for PCR amplification using the plasmid pComb3x of rSCFV18-small subunit P114 fusion protein as a template. Subsequently, an expression vector library was constructed by means of restriction digestion and ligation (SfiI, NheI), and a semi-random amino acid mutation library was introduced into the small subunit position and transformed into HB2151 competent cells, yielding a library capacity of 7.6*10^9. The 100 plates were spread, and 9,500 single clones were picked and inoculated into 600 µL of 2YTA medium, followed by incubation at 37°C with shaking at 250 rpm for 2 h. When the bacterial density reached approximately OD600 = 0.6~1.0, IPTG was then added to a final concentration of 1 mM, and the culture was further incubated at 30°C with shaking at 250 rpm for 20 h. The next day, the bacteria were collected by centrifugation at 4°C, 4,500g for 10min. The supernatant was discarded, and the precipitate was resuspended with 200µl of PBS containing polymyxin B at a final concentration of 20,000 u/ml. The suspension was incubated at room temperature with shaking at 100rpm for 1h, and then centrifuged at 4500g for 10min, and the supernatant was used for the test.
Test Methods: • (1) The concentration of large subunit-rSCFV5 fusion protein was diluted to 50 nM, and 15 µl was added per well; • (2) MBP-PCT fusion protein was diluted to 3.3 ng/ml with PBSAD, and 15 µl was added per well. The background control was PBSAD, and 10 µl was added per well; • (3) HB2151 strain containing expression plasmids with different small subunit were induced by 1 mM of IPTG at 30°C overnight, then treated with polymyxin B for 1.5 h, and centrifuged to collect the supernatant, and 2.5 µl supernatant was added per well; • (4) The above three components were slightly mixed, incubated at 37°C for 7 min, and Obuffer 6.37-3 containing Furimazine at a concentration of 25 µM was added, and after 80 s, the luminescence signal value was detected using a bioluminescence detector; and • (5) Clones with RLU higher than 10,000 and a signal-to-noise ratio (RLU antigen+/RLU antigen-) higher than that of the rSCFV18-small subunit P114 fusion protein were selected for retesting. The substrate was replaced with CTZ-h for retesting. Obuffer 6.37-3 containing CTZ-h at a concentration of 25 µM was added, and after 60 s, the luminescence signal value was detected using a bioluminescence detector.

PCT [2] = assay: Signal-to-noise ratio and linear range for PCT detection, purified fusion proteins (Example 3); parameters: key to luminescence value: luminescence normalized against the background value; details: for Signal-to-noise ratio at 1000 pg/ml: large subunit 100 nM, small subunit fusion 180 nM, CTZ-h 25 µM, 140 s; for signal-to-noise ratios in luciferase dual-antibody complementary activation for PCT detection: statement in words on Table 3 and Figure 2
Protocol: Test Methods: • (1) MBP-PCT protein was diluted with PBSAD in 10-fold gradient starting from 100 ng/ml, with 8 gradients in total, and 10 µl was added per well; • (2) The large subunit-SCFV5 fusion protein was diluted with PBSA to 100 nM, and 10 µl was added per well; • (3) Different rSCFV18-small subunit mutant fusion proteins were diluted with PBSA to 180 nM, and 10 µl of each was added per well; • (4) The plate was mixed slightly and incubated at 37°C for 10 min; and • (5) 50 µl of Obuffer 6.37-3 containing 25 µM of CTZ-h was added, and after 140 s, the luminescence value was detected. The results are shown after normalization against the background value.

PCT [3] = assay: as above; parameters: key: luminescence normalized against the background value; details: PCT 3.3 (pg/ml); normalized against the background value
PCT [4] = assay: Complementation of purified rSCFV18-small subunit mutant fusion protein with large subunit-rSCFV5 fusion protein, PCT gradient (Example 2); details: for luminescence value: CTZ-h 25 µM, 20 s; for Signal-to-noise ratio at 1000 pg/ml: PCT 1000 pg/ml versus 0
Protocol: Protein expression and purification of small subunit mutants: The strains containing plasmids of different small subunits inTable 2, prepared in Example 1, were inoculated into 200ml of 2YTA medium and cultured at 37°C with shaking at 250 rpm for about 3h. When the OD600 reached 1.0, IPTG was added to a final concentration of 1mM, and the culture was further incubated at 30°C with shaking at 250rpm for 20h. The culture were centrifuged at 5,000g for 10min, and the precipitate was resuspended with 10ml of PBS, added with polymyxin B to 20,000u/ml. The suspension was inverted and mixed at room temperature for 1h, and centrifuged at 10,000g to collect the supernatant. The rSCFV18-small subunit mutant fusion protein was purified according to the standard procedure for his-tag protein purification using Ni-NTA resin.
In the same tube, the large subunit-rSCFV5 fusion protein was diluted with PBSA to 50 nM; rSCFV18-small subunit mutant fusion protein was diluted to 90 nM, mixed well, and then 22 µl was added per well; the MBP-PCT fusion protein was diluted in 3-fold gradient with PBSAD (in pg/ml), with 8 gradients in total, 10µl was added per well, and the background control was PBSAD and 10 µl was added per well; the plate was mixed with slight shaking and incubated at 37°C for 6 min, 50 µl of Obuffer 6.37-3 containing 25 µM of CTZ-h then was added, and after 20 s, the luminescence value was detected.

[5] = PCT 100 (pg/ml), normalized against the background value
[6] = PCT 1000 (pg/ml), normalized against the background value
[7] = PCT 10000 (pg/ml), normalized against the background value
[8] = PCT 100000 (pg/ml), normalized against the background value
[9] = PCT 0 pg/ml (background control PBSAD)
[10] = PCT 1000 pg/ml, large subunit 50 nM, small subunit fusion 90 nM

Row | Signal-to-noise ratio (PCT [1]) | PCT+ (PCT [1]) | PCT- (PCT [1]) | signal-to-noise ratios in luciferase dual-antibody complementary activation for PCT detection (PCT [2]) | Sequence | luminescence value (PCT [2]; PCT 0, background, normalized) | luminescence value (PCT [2]; [5]) | luminescence value (PCT [2]; [6]) | luminescence value (PCT [2]; [7]) | luminescence value (PCT [2]; [8]) | Signal-to-noise ratio at 1000 pg/ml (PCT [2]) | luminescence value (PCT [3]) | luminescence value (PCT [4]; [9]) | luminescence value (PCT [4]; PCT 1.37 pg/ml) | luminescence value (PCT [4]; PCT 4.12 pg/ml) | luminescence value (PCT [4]; PCT 12.35 pg/ml) | luminescence value (PCT [4]; PCT 37.04 pg/ml) | luminescence value (PCT [4]; PCT 111.1 pg/ml) | luminescence value (PCT [4]; PCT 333.3 pg/ml) | Signal-to-noise ratio at 1000 pg/ml (PCT [4]) | luminescence value (PCT [4]; [10])
1 | 36.9 | 81063 | 2139 | higher signal-to-noise ratios | VSGWRIHEKIS [RA120] | 5000 | 13450 | 90072 | 694625 | 1999707 | 18.0 | 5257 |  |  |  |  |  |  |  |  | 
2 | 65.1 | 30623 | 463 | higher signal-to-noise ratios | VDGWRLHEKIS [RA141] | 5000 | 8685 | 42762 | 333241 | 1399433 | 8.6 | 5414 |  |  |  |  |  |  |  |  | 
3 | 45.5 | 55957 | 1204 | higher signal-to-noise ratios | VEGWRLHEKIS [RA116] | 5000 | 11673 | 69976 | 515360 | 1784513 | 14.0 | 5301 | 362 | 406 | 473 | 602 | 1212 | 2700 | 7341 | 56.6 | 20492
4 | 67.7 | 31936 | 465 | higher signal-to-noise ratios | VEGYRLFDKKW [RB239] | 5000 | 11004 | 57648 | 466004 | 2167580 | 11.5 | 5622 | 288 | 301 | 332 | 407 | 590 | 1318 | 3364 | 31.1 | 8952
5 | 38.2 | 47227 | 1206 | higher signal-to-noise ratios | VEGYRLFEKVW [RB085] | 5000 | 11950 | 69595 | 554514 | 1830312 | 13.9 | 5486 | 337 | 384 | 445 | 556 | 932 | 2102 | 5551 | 45.8 | 15446
6 | 12.2 | 3993 | 302 | higher signal-to-noise ratios | VEGYRLFNKEW [RB284] | 5000 | 7039 | 24677 | 187742 | 861878 | 4.9 | 5288 |  |  |  |  |  |  |  |  | 
7 | 43.7 | 35245 | 788 |  | VEGYRLFDRKL [RB135] | 5000 | 11916 | 67860 | 536667 | 1936894 | 13.6 | 5698 | 380 | 367 | 422 | 575 | 943 | 2137 | 5480 | 40.0 | 15181
